Values of other authors as cited in patent US9682081B2, “Pharmaceutical gastro-retentive solid oral dosage form of nilotinib” (SUN PHARMACEUTICAL INDUSTRIES LIMITED, priority 2013, dated 2017).

Columns and labels:
[1] = Class IV means low/moderate aqueous solubility and low permeability
[2] = 25° C., pH 4.5 and higher

- Biopharmaceutical Classification System (BCS) class [1]: Class IV
- solubility in aqueous solutions [2]: practically insoluble
SMILES: Cc1cn(-c2cc(NC(=O)c3ccc(C)c(Nc4nccc(-c5cccnc5)n4)c3)cc(C(F)(F)F)c2)cn1 [Nilotinib, 4-methyl-N-[3-(4-methyl-1H-imidazol-1-yl)-5-(trifluoromethyl)phenyl]-3-[[4-(3-pyridinyl)-2-pyrimidinyl]amino]-benzamide]
